Assay results: patent US20180339053A1, “USE OF 1,2-DICARBOXYLIC ACID MONOAMIDE POLYMER AS SYNERGIST FOR CHEMOTHERAPY” (Nankai University, priority 2017, published 2018)
Values joined by “and” are separate entries in the source; they are usually repeats but may differ in a detail not shown here. Equal values may be shown once. Read-outs that look alike come from different tables or passages of the source.

What was measured:
HepG2 cells = assay: Cytotoxicity experiment (MTS) of polymer and anti-cancer drug on HepG2 cells; assay type: cell-based, human; settings: for viability at 4 µg/mL / viability at 5 µg/mL: Homo sapiens; for viability at 5 µg/mL: read-out: Cell Viability (%) Taxol
Procedure: (§1) A suspension of HepG2 cells diluted in 100 μL of a complete medium (a RPMI-1640 medium containing 10% fetal bovine serum and 1% penneillin/streptomycin) was added into a 96-well plate at a concentration of 5×10^3 cells per well, cultivated at 37 degrees Celsius for 24 hours. […] The solution was then aspirated, added with 100 μL of fresh complete medium and incubated continually for 24 hours. The culture medium was aspirated, added with 80 μL PBS solution and 20 μL cell proliferation reagent MTS, incubated at 37 degrees Celsius for 1 hour, and then measured with a microplate reader at 490 nm for absorbance.
(§2) This embodiment is an in vitro cell experiment of the effect of a polyallylamine-2,3-dimethyl maleic anhydride modifier with a molecular weight of 15,000 (PAA15K-DMA) for promoting the toxicity of different chemotherapeutic drugs on non-resistant HepG2 cells. According to the method described in Embodiment 4, the concentration of PAA15K-DMA was 25 μg/mL, and the obtained data was shown in Table 1.
as §2, with “polyallylamine-cyclohexene-1,2-dicarboxylic acid” for “polyallylamine-2,3-dimethyl maleic anhydride”, “200,000 (PAA200K-TPA)” for “15,000 (PAA15K-DMA)”, “PAA200K-TPA” for “PAA15K-DMA”, “Table 1 and FIG.” for “Table”
as §1, with “804” for “80 μL”
as §2, with “linear polyethylenimine-cyclohexene-1,2-dicarboxylic acid” for “polyallylamine-2,3-dimethyl maleic anhydride”, “10,000 (LPEI10K-TPA)” for “15,000 (PAA15K-DMA)”, “10,” for “4,”, “LPEI10K-TPA” for “PAA15K-DMA”, “15” for “25”
as §2, with “branched polyethyleneimine-1-methyl” for “polyallylamine-2,3-dimethyl”, “25,000 (BPEI25K-CA)” for “15,000 (PAA15K-DMA)”, “10,” for “4,”, “BPEI25K-CA” for “PAA15K-DMA”, “15” for “25”
(§3) This embodiment is an in vitro cell experiment of the effect of a 3rd-generation dendritic polypropyleneimine-3-carboxy-2-pentenedioic acid modifier (G3 PPI-AA) for promoting the toxicity of different chemotherapeutic drugs on non-resistant HepG2 cells. According to the method described in Embodiment 10, the concentration of G3 PPI-AA was 20 μg/mL, and the obtained data was shown in Table 1.
as §3, with “polypropyleneimine-2,3-dimethyl maleic anhydride” for “polypropyleneimine-3-carboxy-2-pentenedioic acid”, “PPI-DMA)” for “PPI-AA)”, “PPI-DMA” for “PPI-AA”, “1 and FIG. 3.” for “1.”
This embodiment is an in vitro cell experiment of the effect of a branched polylysine-cyclohexene-1,2-dicarboxylic acid modifier having a molecular weight of 2,000 (BPLys2K-TPA) for promoting the toxicity of different chemotherapeutic drugs on non-resistant HepG2 cells. […]

HepG2/ADR cells = assay: Cytotoxicity experiment (MTS) of polymer and anti-cancer drug on HepG2/ADR cells; assay type: cell-based; settings: Homo sapiens, read-out: Cell Viability (%) Taxol
Procedure: as §1, with “HepG2/ADR” for “HepG2”, “2 hours,” for “1 hour,”
as §1, with “suspension of HepG2/ADR cells diluted” for “suspension of HepG2 cells diluted”, “in 100 IA of a” for “in 100 μL of a”, “Celsius for 2 hours, and then” for “Celsius for 1 hour, and then”, “for absorbance. […]” for “for absorbance.”

[1] = HepG2, pH = 6.5, 5 μg/mL taxol alone (control)
[2] = HepG2, pH = 7.4, 5 μg/mL taxol alone (control)

Compound | viability at 4 µg/mL (HepG2 cells; HepG2, read-out: Cell Viability (%) Doxorubicin, pH = 6.5, 4 μg/mL doxorubicin alone (control)) | viability at 4 µg/mL (HepG2 cells; HepG2, read-out: Cell Viability (%) Doxorubicin, pH = 7.4, 4 μg/mL doxorubicin alone (control)) | Cell Viability (%) Doxorubicin (HepG2 cells; pH = 6.5, 4 μg/mL doxorubicin alone (control)) | Cell Viability (%) Doxorubicin (HepG2 cells; pH = 7.4, 4 μg/mL doxorubicin alone (control)) | viability at 5 µg/mL (HepG2 cells; [1]) | viability at 5 µg/mL (HepG2 cells; [2]) | Cell Viability (%) Taxol (HepG2 cells; pH = 6.5, 5 μg/mL taxol alone (control)) | Cell Viability (%) Taxol (HepG2 cells; pH = 7.4, 5 μg/mL taxol alone (control)) | viability at 5 µg/mL (HepG2/ADR cells; [1]) | viability at 5 µg/mL (HepG2/ADR cells; [2])
COc1cccc2c1C(=O)c1c(O)c3c(c(O)c1C2=O)C[C@@](O)(C(=O)CO)C[C@@H]3O[C@H]1C[C@H](N)[C@H](O)[C@H](C)O1 [Doxorubicin, doxorubicin] | 77% | 72.9% | 78.59% and 77.13% | 70.75% and 73.82% |  |  |  |  |  | 
CC(=O)O[C@H]1C(=O)[C@@]2(C)[C@H]([C@H](OC(=O)c3ccccc3)[C@]3(O)C[C@H](OC(=O)[C@H](O)[C@@H](NC(=O)c4ccccc4)c4ccccc4)C(C)=C1C3(C)C)[C@]1(OC(C)=O)CO[C@@H]1C[C@@H]2O [Taxol, taxol] |  |  |  |  | 80.3% | 83.1% | 78.66% and 76.08% | 82.38% and 80.61% | 84.5% | 89.2%
